# Experimental data as given in US11873298B2, “Compounds and uses thereof” (JANSSEN PHARMACEUTICA NV, priority 2017, dated 2024).
# Columns and labels:
# [1] = biological target: T1, Ole1 (Saccharomyces cerevisiae, UniProt P21147); experiment: Growth inhibition of yeast strain expressing Ole1 as sole desaturase; type: cell-based; settings: yeast strain expressing Ole1 as sole desaturase
# T1 construct: expressed in transfected cells; host or cells: S. cerevisiae ole1Δ strain (W303 pdr1Δ pdr3Δ background), plasmid pRS316 with TDH3 promoter and CYC1 terminator
# T1 sequence (P21147 1-510): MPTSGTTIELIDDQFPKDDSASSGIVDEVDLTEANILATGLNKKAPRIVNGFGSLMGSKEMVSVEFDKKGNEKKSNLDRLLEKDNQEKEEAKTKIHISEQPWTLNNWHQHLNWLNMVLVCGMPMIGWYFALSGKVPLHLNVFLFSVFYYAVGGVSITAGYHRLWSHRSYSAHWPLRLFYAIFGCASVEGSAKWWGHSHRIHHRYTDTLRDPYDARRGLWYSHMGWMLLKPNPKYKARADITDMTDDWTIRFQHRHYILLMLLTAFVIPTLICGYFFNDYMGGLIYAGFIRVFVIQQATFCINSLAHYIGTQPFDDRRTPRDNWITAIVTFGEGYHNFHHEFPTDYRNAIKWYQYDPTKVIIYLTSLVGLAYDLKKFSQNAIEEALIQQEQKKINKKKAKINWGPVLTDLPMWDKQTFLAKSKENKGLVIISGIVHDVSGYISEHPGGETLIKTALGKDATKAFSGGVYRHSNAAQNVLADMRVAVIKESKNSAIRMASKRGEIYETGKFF
# Method in brief: (§1)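 OD600 growth read-out. ole1Δ yeast, pdr1Δ pdr3Δ, with Ole1/SCD1/SCD5 on a plasmid; SX-Ura media throughout; 2× cell density 0.02 in CSM-Galactose; DMSO compound dilutions; humidified 30° C.; Ole1 stopped at 24 h, SCD1/SCD5 at 40 h.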
# [2] = biological target: T2, SCD1 (Homo sapiens, UniProt O00767); experiment: Growth inhibition of humanized yeast strain expressing SCD1 as sole desaturase; type: cell-based; settings: humanized yeast strain expressing SCD1
# T2 construct: host or cells: S. cerevisiae ole1Δ strain (W303 pdr1Δ pdr3Δ background), plasmid pRS316 with TDH3 promoter and CYC1 terminator
# T2 sequence (O00767 1-359): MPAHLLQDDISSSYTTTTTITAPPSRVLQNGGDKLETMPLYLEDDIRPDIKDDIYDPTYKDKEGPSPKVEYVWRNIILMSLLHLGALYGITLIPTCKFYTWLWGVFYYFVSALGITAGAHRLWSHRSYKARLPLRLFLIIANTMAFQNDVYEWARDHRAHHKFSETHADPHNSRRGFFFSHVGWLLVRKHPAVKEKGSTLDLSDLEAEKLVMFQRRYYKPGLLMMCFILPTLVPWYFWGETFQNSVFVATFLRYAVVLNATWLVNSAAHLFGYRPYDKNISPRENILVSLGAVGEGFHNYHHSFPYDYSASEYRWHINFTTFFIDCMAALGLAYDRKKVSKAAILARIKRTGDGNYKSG
# Method in brief: as §1
# [3] = biological target: T3, SCD5 (Homo sapiens, UniProt Q86SK9); experiment: Growth inhibition of humanized yeast strain expressing SCD5 as sole desaturase; type: cell-based; settings: humanized yeast strain expressing SCD5
# T3 construct: host or cells: S. cerevisiae ole1Δ strain (W303 pdr1Δ pdr3Δ background), plasmid pRS316 with TDH3 promoter and CYC1 terminator
# T3 sequence (Q86SK9 1-330): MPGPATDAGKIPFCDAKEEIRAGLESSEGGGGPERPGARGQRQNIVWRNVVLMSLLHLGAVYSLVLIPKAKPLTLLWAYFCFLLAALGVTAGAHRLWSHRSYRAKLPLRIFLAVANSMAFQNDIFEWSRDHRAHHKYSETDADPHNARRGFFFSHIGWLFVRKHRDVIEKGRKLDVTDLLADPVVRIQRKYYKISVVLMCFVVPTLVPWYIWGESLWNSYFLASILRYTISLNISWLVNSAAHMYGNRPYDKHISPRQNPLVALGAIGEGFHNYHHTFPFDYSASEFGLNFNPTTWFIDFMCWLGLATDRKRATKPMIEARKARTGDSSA
# Method in brief: as §1
# [4] = tested on: yeast strains expressing the human ApoE4; experiment: Yeast ApoE4 toxicity rescue assay (OD600 growth); settings: 24 h; for EC50: read-out: ApoE4 EC50; for Emax: read-out: ApoE4 Emax
# Excerpt: The induced expression of α-synuclein and ApoE4 confers cytotoxicity, thus enabling the identification of compounds that can restore cell viability. This instantaneous/synchronous induction of α-synuclein and ApoE4 can be achieved due to the following expression control. In glucose-containing media, gene expression from the GAL1 promoter is ‘off’ and actively repressed by additional epigenetic factors. In raffinose, expression is ‘off’, but the promoter not actively repressed. Upon transition to galactose-containing media, the promoter is instantaneously turned ‘on’ to achieve robust and synchronous induction of α-synuclein or ApoE4 expression. This highly regulated induction provides a robust window for the determination of both efficacy (amplitude of protective effect) and potency (concentration of protective effect) of cytoprotective compounds.
# Re-suspended compound stocks were subsequently arrayed into 384 well compound plates using automated pipetting. All other wells not receiving stock compound were filled with 10 μL of 100% DMSO using an automated plate filler (Multidrop Combi). An 11 point, 2-fold serial dilution was then performed using the robotic platform. Compound assay plates were covered with foil and stored at −20° C. until use.
# Each strain was handled according to standard protocols and cultured in media composed of CSM (complete synthetic media), YNB (yeast nitrogenous base), and a 2% (w/v) carbon source (either glucose, raffinose, or galactose).
# In a standard yeast assay, a single-use aliquot of cells was thawed on ice and diluted into CSM/glucose (5 mL). Cultures were grown for 8 hours at 30° C. This pre-growth enables the yeast to exit the thaw and begin to grow without expressing aSyn or ApoE4. After 8 hours, cell density (OD600) was determined and cultures diluted to an OD600 of 0.01 in CSM/raffinose for an overnight culture phase at 30° C. During this period, the active glucose repression of the GAL1 promoter was relieved; however, expression of the α-Syn/ApoE4 genes were not yet induced. After ˜16 hours of growth, cultures attain an OD600 of 0.4-0.8 and were ready to apply to assay plates containing compound.
# Compound profiling assays were executed in clear-bottom 384 well plates. First, compound plates were thawed at room temperature for 45′, centrifuged at 1,000×g for 1 minute, and the foil removed. Clear 384 well assay plates were then filled with 15 μL of CSM/galactose. […] The pin tool was washed iteratively with both 50% DMSO and 100% ethanol between each assay plate. After delivering compound to each assay plate, the overnight CSM/raffinose aSyn or ApoE4 cultures were added at a 2X cell density (0.04 for aSyn and 0.08 for ApoE4) in CSM/galactose to achieve a final assay OD600 of 0.02 and 0.04 for aSyn and ApoE, respectively. The cultures (15 μL per well) were then dispensed to the compound -containing 384 well assay plates using an automated plate filler. Plates were incubated in a humidified 30° C. incubator for 40 or 24 hours for aSyn and ApoE4, respectively. The ODsoo of each assay plate was then read with a microplate reader (e.g., Perkin Elmer Envision).
# The efficacy and potency of compounds were calculated according to the following. Raw data (OD600 values) were first background corrected to account for OD600 contributed by the plate and media itself. The efficacy (percent above DMSO, herein referred to as “Emax”) was calculated according to the equation: (Experimental well−DMSO control well)/(DMSO control well)*100. […] Normalized dose-response data was fit with a logistic regression curve using Spotfire (TIBCO), or similar curve-fitting software package. EC50 values were then reported along with EMax to provide both efficacy and potency measures for each analog and enable further compound design.
# [5] = tested on: yeast strains expressing the human α-synuclein; experiment: Yeast α-synuclein toxicity rescue assay (OD600 growth); settings: 40 h; for EC50: read-out: α-Syn EC50; for Emax: read-out: α-Syn Emax
Compound,IC50 [1],OLE1 % Max Inhibition [1],IC50 [2],SCD1 % Max Inhibition [2],IC50 [3],SCD5 % Max Inhibition [3],EC50 [4],Emax [4],EC50 [5],Emax [5]
O=C(NCC(=O)N1CCC(c2nc(-c3ccccc3F)no2)CC1)c1ccccc1 [Compound 43],> 45 µM,107.35%,> 45 µM,76.52%,> 45 µM,65.66%,17.7 µM,517%,14.6 µM,222%
COc1ccc(-c2noc(C3CCN(C(=O)Cc4ccccc4)CC3)n2)cc1OC [Compound 44],> 45 µM,93.69%,> 45 µM,17.96%,> 45 µM,10.99%,13.3 µM,676%,10.9 µM,579%
COc1ccc(-c2noc(C3CCN(C(=O)CNC(=O)C4CCCCC4)CC3)n2)cc1OC [Compound 48],> 45 µM,8.16%,39.3 µM,63.58%,> 45 µM,75.26%,2.94 µM,874%,1.47 µM,615%
COc1ccc(-c2noc(N3CCC(C(=O)NCCc4ccccc4)CC3)n2)cc1OC [Compound 49],> 45 µM,34.89%,> 45 µM,61.29%,> 45 µM,63.18%,4.34 µM,942%,1.47 µM,636%
Cc1ccc(-c2nc(C3CCN(C(=O)C4CC(=O)N(c5ccc(C)c(C)c5)C4)CC3)no2)cc1 (stereo not shown) [Compound 50],> 45 µM,98.10%,,67.05%,> 45 µM,46.80%,,133%,7.86 µM,85%
Cc1cccc(-c2nc(C3CCN(C(=O)C4CC(=O)N(c5ccc(C)c(C)c5)C4)CC3)no2)c1 (stereo not shown) [Compound 51],> 45 µM,102.56%,> 45 µM,76.83%,> 45 µM,6.59%,,286%,10.9 µM,137%
CC(C)c1ccc(C(=O)N2CCC(c3noc(-c4cccc(F)c4)n3)CC2)cc1 [Compound 52],> 45 µM,11.78%,> 45 µM,1.65%,> 45 µM,−1.01%,14.5 µM,154%,9.06 µM,82%
CCOc1ccc(-c2noc(C3CCN(C(=O)N4CCCCC4)CC3)n2)cc1OC [Compound 53],> 45 µM,98.51%,> 45 µM,79.96%,> 45 µM,2.94%,16.6 µM,296%,6.6 µM,81%
COc1ccc(-c2noc(C3CCN(C(=O)N4CCCCC4)CC3)n2)cc1OC [Compound 54],> 45 µM,85.34%,> 45 µM,82.41%,> 45 µM,47.60%,17.3 µM,240%,9.1 µM,95%
COc1ccc(-c2noc(C3CCN(C(=O)CNc4nccc5ccccc45)CC3)n2)cc1OC [Compound 55],> 45 µM,114.12%,33.7 µM,74.99%,> 45 µM,74.78%,7.9 µM,29%,23.8 µM,47%
